Laboratory results: US20220400680A1, “USE OF ACYLCYANAMIDES OR SALTS THEREOF FOR REGULATING PLANT GROWTH” (Alzchem Trostberg GmbH, priority 2019, published 2022)

Key:
[1] = system: Grape, type Pinot Noir (C4); assay: Greenhouse test, cut wine sprouts C4 dipped in test solution, bud development stage; assay type: in vivo, Vitis vinifera subsp. vinifera; parameters: key to Bud development stage, wine sprouts C4: Stage 0: Buds unchanged; Stage 1: Buds slightly swollen, first green tips visible; Stage 2: strongly swollen, green buds; Stage 3: Buds before breaking open, leaf or flower root already visible; Stage 4: Flower buds fully developed, but still closed, white petals already visible. In the case of the grapevine, stage 4 was the unfolding of the first leaves; Stage 5: Flowers fully open or, in the case of grapevine, unfolding of the flower roots (“Gescheine”) on the fully leafed sprouts
Summary of the method: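 Cut Pinot Noir grapevine sprouts were dipped in aqueous test solution (0.15 mol test substance, or 0.075 mol for bis-cyanamides, plus 0.15 g BreakThru OE-446 per 500 g total) and kept in water jars at about 22° C under natural light. Bud development was scored on a staged scale from closed buds to fully open flowers.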

[2] = system: table grapes types Bordon AR and Hammar AR; assay: Field test E3 table grapes India, bud burst; parameters: species or system Vitis vinifera; conditions: in vivo
Procedure: Three sections of a table grape plantation in India with types Bordon AR and Hammar AR were treated with the following spray mixtures during the dormancy phase:
E3-0: 600 liters per hectare of water with an addition of 0.1% Break-Thru® OE-446 E3-1: 600 liters per hectare of the spray mixture from example D-1 E3-18: 600 liters per hectare of the spray mixture from example D-18
As a result, the grapevine sprouts were evenly wetted.
After 30 and 45 days, respectively, bud burst was recorded numerically.
Budding means number of buds that have developed at least one leaf after n days, based on the total number of buds on the sprouts at time n=0 days (day of application of spray mixture).

[3] = system: Table cherry, type Burlat (C3); assay: Greenhouse test, cut cherry branches C3 dipped in test solution, bud development stage; assay type: in vivo, Prunus avium; parameters: key to Bud development stage, cherry branches C3: Stage 0: Buds unchanged; Stage 1: Buds slightly swollen, first green tips visible; Stage 2: strongly swollen, green buds; Stage 3: Buds before breaking open, leaf or flower root already visible; Stage 4: Flower buds fully developed, but still closed, white petals already visible. In the case of the grapevine, stage 4 was the unfolding of the first leaves; Stage 5: Flowers fully open or, in the case of grapevine, unfolding of the flower roots (“Gescheine”) on the fully leafed sprouts
Summary of the method: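 Cut branches kept in water jars in a greenhouse at about 22° C. under natural light after dipping in aqueous solution of 0.15 mol test substance (0.075 mol for bis-cyanamides) plus 0.15 g BreakThru OE-446 per 500 g. Bud development scored on a stage scale from closed buds to fully open flowers.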

[4] = system: Table apple, type Boiken apple (C1); assay: Greenhouse test, cut apple branches C1 dipped in test solution, bud development stage; assay type: in vivo, Malus domestica; parameters: key to Bud development stage, apple branches C1: Stage 0: Buds unchanged; Stage 1: Buds slightly swollen, first green tips visible; Stage 2: strongly swollen, green buds; Stage 3: Buds before breaking open, leaf or flower root already visible; Stage 4: Flower buds fully developed, but still closed, white petals already visible. In the case of the grapevine, stage 4 was the unfolding of the first leaves; Stage 5: Flowers fully open or, in the case of grapevine, unfolding of the flower roots (“Gescheine”) on the fully leafed sprouts
Summary of the method: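 Cut Boiken apple branches kept in water jars in a greenhouse at about 22 °C under natural light and dipped in test solution. Solutions contained 0.15 mol test substance (0.075 mol for bis-cyanamides) plus 0.15 g BreakThru OE-446 per 500 g water. Bud development scored on a stage scale up to full flowering.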

[5] = T1 (14 d), 0.15 mol (A-14, A-15: 0.075 mol) per 500 g solution
[6] = stage 4 reached or exceeded after 36 days vs negative control

CC(=O)NC#N.[Na] [Example A-1, Sodium Acetylcyanamide]
Bud development stage, wine sprouts C4 [1, 5]: 0 | Bud development stage, wine sprouts C4 ([1]; T2 (16 d)): 0 | Bud development stage, wine sprouts C4 ([1]; T3 (21 d)): 0 | Bud development stage, wine sprouts C4 ([1]; T4 (27 d)): 1 | Bud development stage, wine sprouts C4 ([1]; T5 (36 d)): 4 | Bud development stage, wine sprouts C4 ([1]; T6 (56 d)): 5 | Dormancy-breaking effect according to the definition, wine C4 [1, 6]: dormancy-breaking effect | Effectiveness compared with prior art treatment with cyanamide [2]: at least as effective as the prior art treatment with cyanamide | Bud development stage, cherry branches C3 [3, 5]: 1 | Bud development stage, cherry branches C3 ([3]; T2 (16 d)): 2 | Bud development stage, cherry branches C3 ([3]; T3 (21 d)): 5 | Bud development stage, cherry branches C3 ([3]; T4 (27 d)): 5 | Bud development stage, cherry branches C3 ([3]; T5 (36 d)): 5 | Bud development stage, cherry branches C3 ([3]; T6 (56 d)): 5 | Good to very good dormancy-breaking effect, cherry C3 ([3]; stage 4 reached or exceeded after 21 days vs negative control): good to very good dormancy-breaking effect | Dormancy-breaking effect according to the definition, cherry C3 ([3]; stage 4 reached or exceeded after 27 days vs negative control): dormancy-breaking effect | Bud development stage, apple branches C1 [4, 5]: 0 | Bud development stage, apple branches C1 ([4]; T2 (16 d)): 0 | Bud development stage, apple branches C1 ([4]; T3 (21 d)): 2 | Bud development stage, apple branches C1 ([4]; T4 (27 d)): 3 | Bud development stage, apple branches C1 ([4]; T5 (36 d)): 5 | Bud development stage, apple branches C1 ([4]; T6 (56 d)): 5 | Dormancy-breaking effect according to the definition, apple C1 [4, 6]: dormancy-breaking effect
